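Growth conditions: 96-well plates. Treatment: test compound, 48 hours, 5 concentrations. Analysis: linear interpolation between bracketing concentrations; unreached endpoints set to highest concentration. At the TGI there is no net growth.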
What was measured:
Test in all cases: growth of human tumour cells (NCI), 48 h
[1] = test system: 786-0 renal
[2] = test system: A498 renal
[3] = test system: A549 NSCLC
[4] = test system: ACHN renal
[5] = test system: BT-549 breast
[6] = test system: CAKI-1 renal
[7] = test system: CCRF-CEM leukemia
[8] = test system: COLO 205 colon
[9] = test system: DU-145 prostate
[10] = test system: EKVX NSCLC
[11] = test system: HCC-2998 colon
[12] = test system: HCT-116 colon
[13] = test system: HCT-15 colon
[14] = test system: HL-60(TB) leukemia
[15] = test system: HOP-62 NSCLC
[16] = test system: HOP-92 NSCLC
[17] = test system: HS 578T breast
[18] = test system: HT29 colon
[19] = test system: IGROV1 ovarian
[20] = test system: K-562 leukemia
[21] = test system: KM12 colon
[22] = test system: LOX IMVI melanoma
[23] = test system: M14 melanoma
[24] = test system: MALME-3M melanoma
[25] = test system: MCF7 breast
[26] = test system: MDA-MB-231 breast
[27] = test system: MDA-MB-435
[28] = test system: MDA-N
[29] = test system: MOLT-4 leukemia
[30] = test system: NCI-H226 lung
[31] = test system: NCI-H23 lung
[32] = test system: NCI-H460 lung
[33] = test system: NCI-H522 lung
[34] = test system: NCI/ADR-RES ovarian
[35] = test system: OVCAR-3 ovarian
[36] = test system: OVCAR-4 ovarian
[37] = test system: OVCAR-5 ovarian
[38] = test system: OVCAR-8 ovarian
[39] = test system: PC-3 prostate
[40] = test system: RPMI-8226 leukemia
[41] = test system: RXF 393 renal
[42] = test system: SF-268 CNS
[43] = test system: SF-295 CNS
[44] = test system: SF-539 CNS
[45] = test system: SK-MEL-2 melanoma
[46] = test system: SK-MEL-28 melanoma
[47] = test system: SK-MEL-5 melanoma
[48] = test system: SK-OV-3 ovarian
[49] = test system: SN12C renal
[50] = test system: SNB-19 CNS
[51] = test system: SNB-75 CNS
[52] = test system: SR leukemia
[53] = test system: SW-620 colon
[54] = test system: T-47D breast
[55] = test system: TK-10 renal
[56] = test system: U251 CNS
[57] = test system: UACC-257 melanoma
[58] = test system: UACC-62 melanoma
[59] = test system: UO-31 renal

For `NCC(=O)Nc1ccc(Cl)cc1C(=O)c1ccc[nH]1`, the TGI [1] was > 100 µM, the TGI [2] was > 100 µM and the TGI [3] was > 100 µM. The TGI [4] was > 100 µM, the TGI [5] was > 100 µM and the TGI [6] was > 100 µM. For the same compound, the TGI [7] was 22.5 µM, the TGI [8] was > 100 µM and the TGI [9] was > 100 µM. The TGI [10] was > 100 µM, the TGI [11] was > 100 µM and the TGI [12] was > 100 µM. For the same compound, the TGI [13] was > 100 µM, the TGI [14] was > 100 µM and the TGI [15] was > 100 µM. For the same compound, the TGI [16] was > 76.5 µM, the TGI [17] was > 100 µM and the TGI [18] was > 100 µM. For the same compound, the TGI [19] was > 100 µM, the TGI [20] was > 100 µM and the TGI [21] was > 100 µM. For the same compound, the TGI [22] was > 100 µM, the TGI [23] was > 100 µM and the TGI [24] was > 100 µM. For the same compound, the TGI [25] was > 100 µM, the TGI [26] was > 100 µM and the TGI [27] was > 100 µM. The TGI [28] was > 100 µM, the TGI [29] was > 100 µM and the TGI [30] was > 100 µM. For the same compound, the TGI [31] was > 100 µM, the TGI [32] was > 100 µM and the TGI [33] was 50.1 µM. For the same compound, the TGI [34] was > 100 µM, the TGI [35] was > 100 µM and the TGI [36] was > 94.9 µM. The TGI [37] was > 100 µM, the TGI [38] was > 100 µM and the TGI [39] was > 100 µM. For the same compound, the TGI [40] was > 100 µM, the TGI [41] was > 100 µM and the TGI [42] was > 100 µM. The TGI [43] was > 100 µM, the TGI [44] was > 100 µM and the TGI [45] was > 100 µM. The TGI [46] was > 100 µM, the TGI [47] was > 100 µM and the TGI [48] was > 100 µM. For the same compound, the TGI [49] was > 100 µM, the TGI [50] was > 100 µM and the TGI [51] was > 100 µM. For the same compound, the TGI [52] was > 100 µM, the TGI [53] was > 100 µM and the TGI [54] was > 100 µM. The TGI [55] was > 100 µM, the TGI [56] was > 100 µM and the TGI [57] was > 100 µM. The TGI [58] was > 100 µM and the TGI [59] was > 100 µM.
`Nc1nc(N)nc(CCCCc2nc(N)nc(N)n2)n1` was tested, and the TGI [1] was > 100 µM, the TGI [2] was > 100 µM and the TGI [3] was > 100 µM. The TGI [4] was > 100 µM, the TGI [5] was > 100 µM and the TGI [6] was > 100 µM. The TGI [7] was > 100 µM, the TGI [8] was > 100 µM and the TGI [9] was > 100 µM. The TGI [10] was > 100 µM, the TGI [12] was > 100 µM and the TGI [13] was > 100 µM. For the same compound, the TGI [14] was > 100 µM, the TGI [15] was > 100 µM and the TGI [16] was > 100 µM. The TGI [17] was > 100 µM, the TGI [18] was > 100 µM and the TGI [19] was > 100 µM. The TGI [20] was > 100 µM, the TGI [21] was > 100 µM and the TGI [22] was > 100 µM. For the same compound, the TGI [23] was > 100 µM, the TGI [24] was > 100 µM and the TGI [25] was > 100 µM. For the same compound, the TGI [26] was > 100 µM, the TGI [27] was > 100 µM and the TGI [28] was > 100 µM. For the same compound, the TGI [29] was > 100 µM, the TGI [30] was > 100 µM and the TGI [31] was > 100 µM. For the same compound, the TGI [32] was > 100 µM, the TGI [33] was > 100 µM and the TGI [34] was > 100 µM. For the same compound, the TGI [35] was > 100 µM, the TGI [36] was > 100 µM and the TGI [37] was > 100 µM. For the same compound, the TGI [38] was > 100 µM, the TGI [39] was > 100 µM and the TGI [40] was > 100 µM. For the same compound, the TGI [41] was > 100 µM, the TGI [42] was > 100 µM and the TGI [43] was > 100 µM. For the same compound, the TGI [44] was > 100 µM, the TGI [45] was > 100 µM and the TGI [46] was > 100 µM. The TGI [47] was > 100 µM, the TGI [48] was > 100 µM and the TGI [49] was > 100 µM. The TGI [50] was > 100 µM, the TGI [51] was > 100 µM and the TGI [52] was > 100 µM. The TGI [53] was > 100 µM, the TGI [54] was > 100 µM and the TGI [55] was > 100 µM. The TGI [56] was > 100 µM, the TGI [57] was > 100 µM and the TGI [58] was > 100 µM. The TGI [59] was > 100 µM.
For `CCOC(CBr)OC1C(=O)OCC1(C)C` (centres undefined), the TGI [1] was > 100 µM, the TGI [2] was > 100 µM and the TGI [3] was > 100 µM. The TGI [4] was > 100 µM, the TGI [5] was > 100 µM and the TGI [6] was > 100 µM. The TGI [7] was > 100 µM, the TGI [8] was > 100 µM and the TGI [9] was > 100 µM. For the same compound, the TGI [10] was > 100 µM, the TGI [11] was > 100 µM and the TGI [12] was > 100 µM. For the same compound, the TGI [13] was > 100 µM, the TGI [14] was > 100 µM and the TGI [15] was > 100 µM. The TGI [16] was > 100 µM, the TGI [17] was > 100 µM and the TGI [18] was > 100 µM. The TGI [19] was > 100 µM, the TGI [20] was > 100 µM and the TGI [21] was > 100 µM. For the same compound, the TGI [22] was > 100 µM, the TGI [23] was > 100 µM and the TGI [24] was > 100 µM. For the same compound, the TGI [25] was > 100 µM, the TGI [26] was > 100 µM and the TGI [27] was > 100 µM. The TGI [28] was > 100 µM, the TGI [29] was > 100 µM and the TGI [30] was > 100 µM. For the same compound, the TGI [31] was > 100 µM, the TGI [32] was > 100 µM and the TGI [33] was > 100 µM. For the same compound, the TGI [34] was > 100 µM, the TGI [36] was > 100 µM and the TGI [37] was > 100 µM. The TGI [38] was > 100 µM, the TGI [39] was > 100 µM and the TGI [40] was > 100 µM. The TGI [41] was > 100 µM, the TGI [42] was > 100 µM and the TGI [43] was > 100 µM. The TGI [45] was > 100 µM, the TGI [46] was > 100 µM and the TGI [47] was > 100 µM. For the same compound, the TGI [48] was > 100 µM, the TGI [49] was > 100 µM and the TGI [50] was > 100 µM. The TGI [51] was > 100 µM, the TGI [52] was > 100 µM and the TGI [53] was > 100 µM. For the same compound, the TGI [54] was > 100 µM, the TGI [55] was > 100 µM and the TGI [56] was > 100 µM. The TGI [57] was > 100 µM, the TGI [58] was > 100 µM and the TGI [59] was > 100 µM.
